Measured values published in ChEMBL document CHEMBL5038665, “Identification of the Benzoimidazole Compound as a Selective FLT3 Inhibitor by Cell-Based High-Throughput Screening of a Diversity Library” (J Med Chem, 2022).
Activity calls are given as the source filed them. The rule behind the calls is not given here.

Key:
[1] = Induction of apoptosis in mouse BaF3 cells assessed as survival population at 1 uM measured after 48 hrs by Annexin V-FITC/propidium iodide staining based flow cytometry(reference value: 96.35 %); format: toxicity, cell-based; conditions: read-out: Activity
[2] = Clearance in 12 hrs fasted Sprague-Dawley rat at 15 mg/kg, po measured upto 24 hrs by LC-MS analysis; format: ADME, organism-based; conditions: in vivo
[3] = Half life in 12 hrs fasted Sprague-Dawley rat at 2 mg/kg, iv measured upto 24 hrs by LC-MS analysis; format: ADME, organism-based; conditions: in vivo
[4] = Half life in 12 hrs fasted Sprague-Dawley rat at 15 mg/kg, po measured upto 24 hrs by LC-MS analysis; format: ADME, organism-based; conditions: in vivo
[5] = Antiproliferative activity against human ML-1 cells expressing wild type FLT3 assessed as reduction in cell viability measured after 72 hrs by MTS assay; format: functional, cell-based; conditions: ML1, 72 h
[6] = test system: MV4-11; assay: Antiproliferative activity against human MV4-11 cells harboring FLT3-ITD mutant assessed as reduction in cell viability measured after 72 hrs ny MTS assay; format: functional, cell-based; conditions: MV4-11, 72 h
[7] = target: Serine/threonine-protein kinase B-raf (Homo sapiens, UniProt P15056); assay: Inhibition of BRAF (unknown origin)
[8] = target: Mast/stem cell growth factor receptor Kit (Homo sapiens, UniProt P10721); assay: Inhibition of KIT (unknown origin)
[9] = target: T1, Receptor-type tyrosine-protein kinase FLT3 (Homo sapiens, UniProt P36888); assay: Inhibition of FLT3 (unknown origin)
T1 sequence (P36888 whole entry): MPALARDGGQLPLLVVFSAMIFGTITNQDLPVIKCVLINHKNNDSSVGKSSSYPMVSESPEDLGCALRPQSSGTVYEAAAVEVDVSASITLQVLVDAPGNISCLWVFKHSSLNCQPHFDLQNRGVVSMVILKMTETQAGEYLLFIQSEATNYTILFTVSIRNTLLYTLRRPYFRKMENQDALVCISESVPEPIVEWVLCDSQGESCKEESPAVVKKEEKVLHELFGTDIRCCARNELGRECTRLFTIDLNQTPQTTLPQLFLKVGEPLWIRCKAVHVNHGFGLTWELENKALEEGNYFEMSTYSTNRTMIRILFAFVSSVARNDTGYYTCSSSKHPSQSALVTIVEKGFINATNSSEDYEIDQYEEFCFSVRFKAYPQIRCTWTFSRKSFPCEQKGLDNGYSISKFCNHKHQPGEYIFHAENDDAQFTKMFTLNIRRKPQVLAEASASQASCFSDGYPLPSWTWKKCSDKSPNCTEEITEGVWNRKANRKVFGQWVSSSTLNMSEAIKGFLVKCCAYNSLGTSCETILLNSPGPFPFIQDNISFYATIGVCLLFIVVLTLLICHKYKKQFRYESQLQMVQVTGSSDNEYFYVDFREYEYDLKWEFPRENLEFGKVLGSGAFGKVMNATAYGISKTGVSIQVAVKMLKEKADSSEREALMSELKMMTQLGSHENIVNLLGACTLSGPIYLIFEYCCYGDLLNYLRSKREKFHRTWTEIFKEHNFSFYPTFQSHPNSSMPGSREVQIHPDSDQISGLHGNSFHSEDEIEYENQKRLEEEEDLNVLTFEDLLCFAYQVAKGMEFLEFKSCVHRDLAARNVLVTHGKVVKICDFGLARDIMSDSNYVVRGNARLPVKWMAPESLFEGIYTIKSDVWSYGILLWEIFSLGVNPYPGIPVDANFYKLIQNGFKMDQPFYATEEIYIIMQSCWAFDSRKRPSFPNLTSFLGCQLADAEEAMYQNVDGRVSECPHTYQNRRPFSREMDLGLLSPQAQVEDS

[10] = target: Receptor-type tyrosine-protein kinase FLT3 (Homo sapiens, UniProt P36888, ITD); assay: Inhibition of FLT3-ITD mutant (unknown origin)
[11] = test system: MOLM-13; assay: Induction of apoptosis in human MOLM-13 cells assessed as survival population at 0.1 uM measured after 48 hrs by Annexin V-FITC/propidium iodide staining based flow cytometry(reference value: 97.35 %); format: functional
[12] = test system: MOLM-13; assay: Induction of apoptosis in human MOLM-13 cells assessed as survival population at 0.5 uM measured after 48 hrs by Annexin V-FITC/propidium iodide staining based flow cytometry(reference value: 97.35 %); format: functional
[13] = target: Receptor-type tyrosine-protein kinase FLT3 (Homo sapiens) (UniProt P36888); assay: Inhibition of FLT3-mediated signalling pathway in human MV4-11 cells assessed as inhibition of STAT5 phosphorylation at 50 nM by western blot analysis; format: cell-based
[14] = target: T2, Receptor-type tyrosine-protein kinase FLT3 (Mus musculus) (UniProt Q00342); assay: Inhibition of FLT3-mediated signalling pathway in mouse Ba/F3 FLT3-ITD cells assessed as inhibition of STAT5 phosphorylation at 1 to 900 nM measured after 12 hrs by western blot analysis; format: cell-based; conditions: dose 1-900 nM
T2 sequence (whole entry): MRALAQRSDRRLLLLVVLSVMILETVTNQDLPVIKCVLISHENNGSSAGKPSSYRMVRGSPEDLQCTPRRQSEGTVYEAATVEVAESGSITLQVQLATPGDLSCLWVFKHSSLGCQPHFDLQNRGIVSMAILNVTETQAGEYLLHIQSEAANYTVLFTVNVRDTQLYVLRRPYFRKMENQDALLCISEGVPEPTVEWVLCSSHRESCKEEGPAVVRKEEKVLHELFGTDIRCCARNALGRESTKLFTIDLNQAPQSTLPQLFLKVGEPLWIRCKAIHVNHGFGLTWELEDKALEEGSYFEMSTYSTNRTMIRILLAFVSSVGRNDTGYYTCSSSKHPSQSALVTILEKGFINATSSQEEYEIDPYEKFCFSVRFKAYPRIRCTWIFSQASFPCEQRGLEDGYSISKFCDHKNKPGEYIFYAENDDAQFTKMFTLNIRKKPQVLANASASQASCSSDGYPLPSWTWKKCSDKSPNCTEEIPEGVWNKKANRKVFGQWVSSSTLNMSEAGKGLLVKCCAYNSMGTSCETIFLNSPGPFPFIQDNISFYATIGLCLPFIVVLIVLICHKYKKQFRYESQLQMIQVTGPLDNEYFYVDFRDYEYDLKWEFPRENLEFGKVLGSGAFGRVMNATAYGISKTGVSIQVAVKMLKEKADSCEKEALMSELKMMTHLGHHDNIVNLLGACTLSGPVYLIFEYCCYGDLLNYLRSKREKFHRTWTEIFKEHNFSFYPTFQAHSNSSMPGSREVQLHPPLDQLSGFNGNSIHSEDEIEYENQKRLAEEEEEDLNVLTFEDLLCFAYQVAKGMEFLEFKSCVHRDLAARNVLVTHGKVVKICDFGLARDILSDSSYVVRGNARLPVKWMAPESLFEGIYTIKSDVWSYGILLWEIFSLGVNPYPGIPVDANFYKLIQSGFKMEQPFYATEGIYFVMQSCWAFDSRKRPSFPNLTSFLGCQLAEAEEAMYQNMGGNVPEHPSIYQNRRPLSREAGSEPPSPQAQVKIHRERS

[15] = Antitumor activity against mouse Ba/F3 FLT3-ITD cells implanted in Balb/c mouse assessed as increase in survival time at 30 mg/kg, po administered every 24 hrs (Rvb=14 days); format: functional

Chain of Mast/stem cell growth factor receptor Kit (P10721 whole entry): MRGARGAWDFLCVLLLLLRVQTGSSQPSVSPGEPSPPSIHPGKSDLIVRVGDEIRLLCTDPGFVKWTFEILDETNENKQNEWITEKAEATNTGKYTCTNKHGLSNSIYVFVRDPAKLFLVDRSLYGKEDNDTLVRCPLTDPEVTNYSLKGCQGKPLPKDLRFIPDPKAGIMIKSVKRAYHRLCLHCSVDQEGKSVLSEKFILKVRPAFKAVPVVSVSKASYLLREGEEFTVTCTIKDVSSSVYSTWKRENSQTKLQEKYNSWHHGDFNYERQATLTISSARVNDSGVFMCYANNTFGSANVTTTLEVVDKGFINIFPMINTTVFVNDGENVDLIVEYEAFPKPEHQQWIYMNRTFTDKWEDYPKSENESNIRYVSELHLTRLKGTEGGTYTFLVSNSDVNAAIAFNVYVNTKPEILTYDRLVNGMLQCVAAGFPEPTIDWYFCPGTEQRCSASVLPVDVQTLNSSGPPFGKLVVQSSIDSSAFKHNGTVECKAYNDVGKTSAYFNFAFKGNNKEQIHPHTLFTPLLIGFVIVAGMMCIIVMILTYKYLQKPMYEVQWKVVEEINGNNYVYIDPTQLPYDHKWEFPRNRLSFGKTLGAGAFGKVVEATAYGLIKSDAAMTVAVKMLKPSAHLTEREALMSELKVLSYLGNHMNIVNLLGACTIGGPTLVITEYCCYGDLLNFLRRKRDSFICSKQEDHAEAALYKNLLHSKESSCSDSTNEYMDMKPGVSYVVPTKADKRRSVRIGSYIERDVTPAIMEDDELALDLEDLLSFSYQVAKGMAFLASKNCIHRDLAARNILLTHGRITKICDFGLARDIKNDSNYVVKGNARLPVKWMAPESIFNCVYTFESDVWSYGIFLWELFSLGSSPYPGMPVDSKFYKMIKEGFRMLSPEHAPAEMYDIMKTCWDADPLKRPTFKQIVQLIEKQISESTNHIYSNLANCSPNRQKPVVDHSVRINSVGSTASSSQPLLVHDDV
Chain of Serine/threonine-protein kinase B-raf (P15056 whole entry): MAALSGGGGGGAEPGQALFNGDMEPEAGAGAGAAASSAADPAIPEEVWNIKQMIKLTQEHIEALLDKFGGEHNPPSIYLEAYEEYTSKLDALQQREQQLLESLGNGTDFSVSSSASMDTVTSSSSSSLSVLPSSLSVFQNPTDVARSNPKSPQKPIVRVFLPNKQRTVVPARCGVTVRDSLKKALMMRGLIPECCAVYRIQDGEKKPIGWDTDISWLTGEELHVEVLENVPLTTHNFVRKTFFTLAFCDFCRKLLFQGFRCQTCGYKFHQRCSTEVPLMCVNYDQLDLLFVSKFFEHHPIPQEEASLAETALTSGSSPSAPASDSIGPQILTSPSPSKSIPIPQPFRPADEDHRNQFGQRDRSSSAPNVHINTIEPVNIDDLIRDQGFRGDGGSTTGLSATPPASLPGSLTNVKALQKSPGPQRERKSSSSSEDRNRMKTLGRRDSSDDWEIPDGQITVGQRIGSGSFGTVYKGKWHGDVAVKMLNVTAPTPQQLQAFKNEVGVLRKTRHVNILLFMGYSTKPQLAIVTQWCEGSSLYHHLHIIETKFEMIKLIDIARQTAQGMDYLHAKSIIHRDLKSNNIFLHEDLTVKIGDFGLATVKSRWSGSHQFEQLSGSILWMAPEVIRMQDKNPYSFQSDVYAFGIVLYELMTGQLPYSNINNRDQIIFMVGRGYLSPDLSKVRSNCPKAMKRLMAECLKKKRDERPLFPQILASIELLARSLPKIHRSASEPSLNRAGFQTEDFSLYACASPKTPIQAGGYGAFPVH

COc1cc(CNc2ccc3c(c2)ncn3-c2ccccc2)ccc1OCCO
viability at 48 h, 1 µM [1]: 97.7%
CL/F [2]: 84.7 mL/min/kg
half-life [3]: 0.31 h
half-life [4]: 4.28 h
IC50 [5]: > 50000 nM
IC50 [6]: 165 nM
IC50 [7]: > 1000 nM
IC50 [8]: 160 nM
IC50 [9]: 85 nM
IC50 [10]: 70 nM
Activity [11]: 83.61%
Activity [12]: 68.85%
inhibition [13]: Active
inhibition [14]: Active
Time [15]: 18 days
